Source: patent publication US20200171159A1, “SELECTIVE DESTRUCTION OF CELLS” (priority 2017, published 2020)
Entries after “also recorded” stand apart in the source; their conditions may differ.

Key:
1975 lung cancer cells = assay: Cell survival, enzymatic MTT assay, Example 5; type: cell-based, human; conditions: 1975 cells
H1975 cells [1] = assay: Cell survival with LV-scFvCD24 and INr2 peptide, Example 3; type: cell-based, human; conditions: with peptide and LV-scFvCD24 particles
Experimental: The expression of CD24 in H1975 cells was evaluated by Flow cytometry. Briefly, approximately 1×10^6 cells were used in each experiment. Fluorescein isothiocyanate (FITC)—labeled humanized anti-human CD24 antibodies were used. Detection of bound antibodies was performed on a Cube6 and results were analyzed with the FCS express program. The lentivirus used was anti-CD24 scFv in an MOI of 30. The LentiBoost™ concentration used was 1:100 buffer A+1:100 buffer B (+spinoculation). The INr2 peptide was used in a concentration of 30 μM. FIG. 3A depicts the fluorescence (count) of the tested cells (Left—negative control, only secondary antibody; Right—duplicates of cells expressing CD24 after first and second-FITC antibodies). […] FIG. 3C is a schematic illustration of the of the experiment timeline. […] Particles were added on days 1, 4 and 7 as well.

H1975 cells [2] = assay: Cell survival, enzymatic MTT assay, Example 2; conditions: with INS peptide and LV-scFvCD24 particles
Experimental: Cell line “H1975” cells were seeded in 96-well plates (2000 cells/well). […] Particles were added on day 2.

[3] = test system: BT549 breast cancer cells; assay: Cell survival, enzymatic MTT assay, Example 5; type: cell-based, human
HIV-1 = conditions: cited from earlier work
IN-Rev interaction = IN-Rev interaction (Human immunodeficiency virus type 1 group M subtype B, UniProt P04618); conditions: cited from earlier work
IN-Rev interaction, sequence (P04618 whole entry, looked up): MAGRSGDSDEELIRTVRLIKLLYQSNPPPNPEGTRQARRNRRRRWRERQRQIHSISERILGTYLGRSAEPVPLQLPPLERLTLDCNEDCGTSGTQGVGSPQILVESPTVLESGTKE

[4] = cited from earlier work
HIV-1 integrase = target: T1, HIV-1 integrase (Human immunodeficiency virus type 1 group M subtype B, UniProt P12497); assay: Integrase activity in test tubes (HIV-1 integrase assay kit); type: biochemical
T1 construct: purchased
Experimental: The ability of INS to increase the activity of HIV-1 integrase was tested using the HIV-1 integrase assay kit.

IN = target: T2, IN (Human immunodeficiency virus type 1 group M subtype B, UniProt P12497); conditions: listed as INS; cited from earlier work
T2 construct: Stimulation of the HIV-1 Integrase Enzymatic Activity and cDNA Integration by a Peptide Derived from the Integrase Protein

[5] = test system: DLD1, colorectal adenocarcinoma; assay: Cell death of lentivirus-infected cells, fluorescent microscopy and MTT assay, Example 4; type: cell-based, human; conditions: DLD1 infected with CD24-targeted lentivirus; compared to the control peptide
Experimental: (§1) Integrase derived peptides (designated as INS) were synthesized as well as control peptide. Humanized Anti-CD24 antibody fragment (scFv) was engineered and fused to the lentivirus envelope. Cell death was measured qualitatively by using fluorescent microscopy and was quantified by the enzymatic MTT assay. Human colorectal cells (DLD1, colorectal adenocarcinoma, FIG. 4A) and breast cancer cells (MCF7, Human breast adenocarcinoma, FIG. 4B) were used for testing the potency of the lentiviral-based system.

viral Integrase enzyme = viral Integrase enzyme (Human immunodeficiency virus type 1 group M subtype B, UniProt P12497); assay: Integrase stimulation in viral infected cells, Example 4; type: cell-based
Experimental: as §1

[6] = test system: MCF7, Human breast adenocarcinoma; assay: Cell death of lentivirus-infected cells, fluorescent microscopy and MTT assay, Example 4; type: cell-based; conditions: MCF7 infected with CD24-targeted lentivirus; compared to the control peptide
Experimental: as §1

Compound | effect of Raltegravir on the decrease in survival (1975 lung cancer cells) | effect of Raltegravir on the decrease in survival (H1975 cells [1]) | effect of Raltegravir on the decrease in survival (H1975 cells [2]) | effect of Raltegravir on the decrease in survival [3] | virus infectivity (HIV-1) | IN-Rev interaction (IN-Rev interaction) | cell permeability [4] | stimulation of the viral Integrase enzyme (HIV-1 integrase) | direct effect on IN activity (IN) | cell death [5] | stimulation of the viral Integrase enzyme (viral Integrase enzyme) | cell death [6]
Cc1nnc(C(=O)NC(C)(C)c2nc(C(=O)NCc3ccc(F)cc3)c(O)c(=O)n2C)o1 [Raltegravir] | ameliorated | ameliorated | ameliorated | ameliorated | – | – | – | – | – | – | – | –
WGSNFTSTTVKA [INr2] | – | – | – | – | stimulated virus infectivity | abrogated | cell-permeable | – | – | – | – | –
WTAVQMAVFIHNFKRK [INS peptide] | – | – | – | – | stimulated virus infectivity | abrogated | cell-permeable | able to stimulate | directly activates the free IN; also recorded: direct stimulatory effect | Massive cell death | able to stimulate | Massive cell death
WTHLEGKIILVAVHVA [INr1] | – | – | – | – | stimulated virus infectivity | abrogated | cell-permeable | – | – | – | – | –
